Assay results from US6169083A, “Preventives/remedies for stomatitis” (Zeria Pharmaceutical Co., Ltd., priority 1996, dated 2001).

What was measured:
rats = assay: Acute toxicity (oral administration to rats); format: in vivo
Experimental: (2) The LD50 value of the sodium alginate was 5,000 mg/kg as determined by oral administration to rats.

[1] = Clinical examples: treatment of stomatitis in cancer patients subjected to chemotherapy and/or radiotherapy; format: in vivo, patient
Source text: Examples (Clinical Examples):
The frequency indicated in each example indicates a symptomatic process and was judged on the basis of the side effect standard by the Japanese Cancer Association. The frequency and symptom thereof are as follows, and a higher frequency indicates a severer symptom. […]

Compound | LD50 (rats) | clinical outcome of stomatitis ([1]; Example 1, suspension 150 mg/100 ml, 5 ml, 5 or 6 times a day, 8 days) | clinical outcome of stomatitis ([1]; Example 2, suspension 450 mg/100 ml, 5 ml, 2 to 4 times a day 6 days, then 3 days, swab additional 2 days) | clinical outcome of stomatitis ([1]; Example 3, suspension 300 mg/100 ml, 5 ml, twice a day, 10 days) | clinical outcome of stomatitis ([1]; Example 12, ointment 150 mg in plastibase 100 g, swab, 3 to 5 times a day, 9 days)
NCCC(=O)[N-][C@@H](Cc1c[nH]cn1)C(=O)[O-].[Zn+2] [crystalline L-carnosine zinc salt, L-carnosine zinc salt] | 8,441 mg/kg | the erosion and ulcer arisen on the intraoral mucosa were completely healed | the ulcer arisen on the intraoral mucosa and angulus oris was completely healed, and the patient became able to ingest a solid diet | the ulcer arisen on the intraoral mucosa was completely healed, and the patient became able to ingest a solid diet | the ulcer in the oral cavity was completely healed, and the patient became able to ingest a solid diet
sodium alginate [reference compound] | 5,000 mg/kg | – | – | – | –
